Measured values as given in patent publication EP3256120B1, “PSORALEN DERIVATIVES AS NON-PEPTIDIC INHIBITORS OF CHYMOTRYPSIN-LIKE ACTIVITY OF THE IMMUNOPROTEASOME” (Univerza v Ljubljani, priority 2015, dated 2016).
pIC50, pKi: −log10 of the molar value.

Biological target: proteasomal β5 (Homo sapiens, UniProt P28074)
Assay: not given
Settings: Singh A.V. et al. 2011; cited from earlier work
In the case of `CC1=C(C(=O)N[C@H](C)C(=O)N[C@@H](Cc2c[nH]c3ccccc23)C(=O)N[C@@H](Cc2ccccc2)C(=O)[C@@]2(C)CO2)Cc2ccccc21` [PR-924], the “selectivity for inhibition of the β5i over proteasomal β5” value is listed as > 100 fold.

Test system: other catalytic subunits (β1, β1i, β2, β2i)
Assay: not given
Settings: cited from earlier work
For `CC1=C(C(=O)N[C@H](C)C(=O)N[C@@H](Cc2c[nH]c3ccccc23)C(=O)N[C@@H](Cc2ccccc2)C(=O)[C@@]2(C)CO2)Cc2ccccc21` [PR-924], the “inhibition of other catalytic subunits” value is given as “little or no inhibition”.

Biological target: T1, β5i subunit of human immunoproteasome (Homo sapiens, UniProt P28062)
T1 construct: purchased Boston Biochem, Inc., Cambridge, MA, USA
Assay: Preliminary evaluation of inhibition of the β5i subunit (residual activity, Suc-LLVY-AMC fluorescence)
Assay type: biochemical
Settings: test compound 10 µM, 30 min preincubation at 37 °C, Suc-LLVY-AMC 25 µM, immunoproteasome 0.25 µg/mL
Experimental: Appropriate stock solutions (mM concentration) of the test compounds were prepared in DMSO. Subsequent dilutions of the compounds, as well as the immunoproteasome and the substrate were prepared in buffered solution (50 mM Tris-HCI (pH 8.0), 0.5 mM EDTA, 0.01% SDS). To a 96-well black microtiter plate, human immunoproteasome (final concentration, 0.25 µg/mL) (Boston Biochem, Inc., Cambridge, MA, USA) was added, followed by either test compounds (10 µM final concentration) or buffered solution (with and without the DMSO), which accounted for the control group. Microtiter plate was covered with aluminum foil and incubated at 37 °C for 30 minutes with medium agitation. The reaction was initiated by the addition of β5- and β5i-selective substrate Suc-LLVY-AMC (25 µM final concentration). The reaction progress was recorded on the BioTek Synergy HT microplate reader by monitoring fluorescence at 460 nm (λex = 360 nm) every 5 minutes for 120 min at 37 °C. At least two independent experiments were performed. The initial linear ranges (between 20th and 60th minute) were used to calculate the slope of the line (k) by dividing the difference of fluorescence intensities (F) with the time difference (t) (Equation 1). The residual activities in percentages were calculated from the slopes obtained (Equation 2). The calculations were performed in Microsoft Office Excel 2007. k = ΔF/Δt [formula] • k slope of the line • F fluorescence intensity • t time (min) Residualactivityin% = kt /knt *100% [formula] • kt slope of the line for the treated enzyme • knt slope of the line for the non-treated enzyme
In the case of `Cc1c(N)c(=O)oc2cc3occ(-c4ccccc4)c3cc12`, the “RA (%)” value was 88%.
In the case of `COc1ccc(-c2coc3cc4oc(=O)c(CCC(=O)O)c(C)c4cc23)cc1`, the “RA (%)” value was 84%.
For `Cc1c(CCC(=O)O)c(=O)oc2cc3occ(C4CCCCC4)c3cc12`, the “RA (%)” value was 102%.
For `Cc1c(CCC(=O)O)c(=O)oc2cc3occ(C(C)(C)C)c3cc12` [n=2, 1R=t-Bu], the “RA (%)” value was 83%.
With `Cc1cc(-c2coc3cc4oc(=O)c(CCC(=O)O)c(C)c4cc23)c(C)o1` the “RA (%)” value was 100%.
With `Cc1coc2cc3oc(=O)c(CCC(=O)O)c(C)c3cc12` [n=2, 1R=Me] the “RA (%)” value was 94%.
For `Cc1c(C(=O)O)c(=O)oc2cc3occ(-c4ccccc4)c3cc12`, the “RA (%)” value was 82%.
In the case of `Cc1c(CC(=O)O)c(=O)oc2cc3occ(C(C)(C)C)c3cc12` [n=1, 1R=t-Bu], the “RA (%)” value was 85%.
In the case of `Cc1coc2cc3oc(=O)c(CC(=O)O)c(C)c3cc12` [n=1, 1R=Me], the “RA (%)” value was 88%.

Test system: normal peripheral blood mononuclear cells
Assay: not given
Settings: exposure to high (up to 20 µM) concentrations; cited from earlier work
For `CC1=C(C(=O)N[C@H](C)C(=O)N[C@@H](Cc2c[nH]c3ccccc23)C(=O)N[C@@H](Cc2ccccc2)C(=O)[C@@]2(C)CO2)Cc2ccccc21` [PR-924], the “toxicities in normal peripheral blood mononuclear cells” value is listed as “no significant toxicities”.

Biological target: T1, β5i subunit of human immunoproteasome
Assay: Evaluation of reversible inhibitors of the β5i subunit (mode of inhibition and Ki, Dixon plots)
Assay type: biochemical
Settings: competitive inhibitors (footnote b), Suc-LLVY-AMC 12.5 µM to 125 µM, immunoproteasome 0.25 µg/mL
Experimental: The test compounds from the preliminary inhibitory assay with residual activities equal to or lower than 60% were characterized further by determining the mode of inhibition (competitive, non-competitive, uncompetitive, mixed inhibition). The assays were performed as described above. Five or more different concentrations of the test compounds ranging from 0.1 µM to 100 µM were used to determine the kinetic parameters at four different substrate concentrations (Suc-LLVY-AMC ranging from 12.5 µM to 125 µM). Final concentration of the immunoproteasome remained the same as before (0.25 µg/mL). The results obtained were analyzed as outlined above (see Equations 1 and 2), and two plots were derived using Microsoft Office Excel 2007:
- 1/v plotted against inhibitor concentration (Dixon plot; v- velocity, equal to the slope of the line k),
- [S]/v plotted against different concentrations of inhibitor ([S] equals substrate concentration).
The mode of inhibition was estimated from the relative positions of the lines obtained.
For `COc1cccc(-c2coc3cc4oc(=O)c(CC(=O)O)c(C)c4cc23)c1`, the pKi was 5.15.
With `Cc1c(CC(=O)O)c(=O)oc2cc3occ(-c4ccco4)c3cc12` the pKi was 4.05.
With `Cc1cc(-c2coc3cc4oc(=O)c(CC(=O)O)c(C)c4cc23)c(C)s1` the pKi was 4.44.
For `Cc1c(CCC(=O)O)c(=O)oc2cc3occ(-c4ccco4)c3cc12`, the pKi was 3.94.
`Cc1c(CC(=O)O)c(=O)oc2cc3occ(-c4ccc(Br)cc4)c3cc12` gave a pKi of 4.90.
With `COc1ccc(-c2coc3cc4oc(=O)c(CC(=O)O)c(C)c4cc23)cc1` the pKi was 5.09.
`Cc1cc(-c2coc3cc4oc(=O)c(CC(=O)O)c(C)c4cc23)c(C)o1` gave a pKi of 3.45.
With `Cc1c(CCC(=O)O)c(=O)oc2cc3occ(-c4ccccc4)c3cc12` the pKi was 5.80.
In the case of `Cc1c(CN)c(=O)oc2cc3occ(-c4ccccc4)c3cc12`, the pKi was 4.40.
For `Cc1c(CC(=O)O)c(=O)oc2cc3occ(-c4ccccc4)c3cc12`, the pKi was 5.62.
Work on `Cc1c(CCC(=O)O)c(=O)oc2cc3occ(-c4ccc(Br)cc4)c3cc12` yielded a pKi of 3.86.
With `O=C(O)Cc1cc2cc3c(-c4ccccc4)coc3cc2oc1=O` the pKi was 5.42.
With `Cc1cc(-c2coc3cc4oc(=O)c(CCC(=O)O)c(C)c4cc23)c(C)s1` the pKi was 4.28.
Work on `Cc1c(CC(=O)O)c(=O)oc2cc3occ(C4CCCCC4)c3cc12` yielded a pKi of 3.70.
`COc1cccc(-c2coc3cc4oc(=O)c(CCC(=O)O)c(C)c4cc23)c1` gave a pKi of 4.53.

Biological target: β5i (Homo sapiens, UniProt P28062)
Assay: not given
Settings: inhibition of the β5i; Singh A.V. et al. 2011; cited from earlier work
In the case of `CC1=C(C(=O)N[C@H](C)C(=O)N[C@@H](Cc2c[nH]c3ccccc23)C(=O)N[C@@H](Cc2ccccc2)C(=O)[C@@]2(C)CO2)Cc2ccccc21` [PR-924], the pIC50 is given as 7.66.

Biological target: T1, β5i subunit of human immunoproteasome
Assay: Evaluation of irreversible inhibitors of the β5i subunit (IC50)
Assay type: biochemical
Settings: Suc-LLVY-AMC 25 µM, immunoproteasome 0.25 µg/mL, fluorescence increase between 20th and 60th minute
Experimental: The test compounds with time-dependent inhibitory activities were treated and evaluated as irreversible inhibitors. The assay was performed as described in the 44 section Preliminary evaluation of inhibition of the β5i subunit of human immunoproteasome. At least seven different concentrations of the test compounds ranging from 0.001 µM to 50 µM were used. The final concentrations of the substrate Suc-LLVY-AMC and the immunoproteasome were 25 µM and 0.25 µg/mL, respectively. At least two independent experiments were performed. The increases in fluorescence intensity between 20th and 60th minute and appropriate test compounds concentrations were analyzed with GraphPad Prism 5.01 to determine the IC50 values. Table 1. Inhibitory potencies of reversible psoralen-based inhibitors against the β5i subunit of the human immunoproteasome. The following compounds are not part of the invention.
With `Cc1c(CC(=O)ON2C(=O)CCC2=O)c(=O)oc2cc3occ(-c4ccccc4)c3cc12` the pIC50 was 5.19.
Work on `Cc1c(CCC(=O)ON2C(=O)CCC2=O)c(=O)oc2cc3occ(-c4ccccc4)c3cc12` yielded a pIC50 of 7.05.
`C=CC(=O)Nc1c(C)c2cc3c(-c4ccccc4)coc3cc2oc1=O` showed a pIC50 of 4.69.

Test system: MHC-I receptors on the surface
Assay: not given
Settings: Muchamuel T. et al. 2009; cited from earlier work
For `COc1ccc(C[C@H](NC(=O)[C@H](C)NC(=O)CN2CCOCC2)C(=O)N[C@@H](Cc2ccccc2)C(=O)[C@@]2(C)CO2)cc1` [PR-957], the “reduction of the expression of MHC-I receptors on the surface to” value is given as 50%.
